Each structure is given as a SMILES string.

The target in this test is T1, Seed linoleate 13S-lipoxygenase-1 (Glycine max, UniProt P08170).
T1 sequence (P08170 whole entry): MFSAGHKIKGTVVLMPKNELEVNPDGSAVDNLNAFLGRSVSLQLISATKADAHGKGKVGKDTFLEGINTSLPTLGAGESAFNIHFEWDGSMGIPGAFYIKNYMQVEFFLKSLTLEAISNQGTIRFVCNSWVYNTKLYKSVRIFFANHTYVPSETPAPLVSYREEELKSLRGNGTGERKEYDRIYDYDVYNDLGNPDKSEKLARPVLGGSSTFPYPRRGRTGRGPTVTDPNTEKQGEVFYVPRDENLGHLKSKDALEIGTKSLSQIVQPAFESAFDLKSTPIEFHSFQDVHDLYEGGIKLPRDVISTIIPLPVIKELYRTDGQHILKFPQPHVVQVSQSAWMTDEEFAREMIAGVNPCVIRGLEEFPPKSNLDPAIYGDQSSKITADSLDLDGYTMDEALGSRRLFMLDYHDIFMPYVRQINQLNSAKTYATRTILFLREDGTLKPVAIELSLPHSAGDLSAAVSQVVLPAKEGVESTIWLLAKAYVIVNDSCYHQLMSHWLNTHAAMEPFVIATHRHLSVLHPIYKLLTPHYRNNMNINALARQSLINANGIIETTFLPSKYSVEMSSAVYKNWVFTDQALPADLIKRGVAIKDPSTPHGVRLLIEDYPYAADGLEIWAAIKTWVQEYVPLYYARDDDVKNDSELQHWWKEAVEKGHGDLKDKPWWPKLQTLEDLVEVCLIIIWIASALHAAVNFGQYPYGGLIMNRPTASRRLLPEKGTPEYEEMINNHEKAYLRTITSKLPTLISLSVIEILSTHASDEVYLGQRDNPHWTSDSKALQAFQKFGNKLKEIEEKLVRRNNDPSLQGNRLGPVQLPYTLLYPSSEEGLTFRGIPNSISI
The experiment in a line: Inhibition Assay. The settings on record: pH 8; 25 °C. How it is done: In vitro liposygenase inhibition assay activity was measured by modifying the spectrophotometric method developed by Tappel. The compound was prepared in methanol at various concentrations ([…]). The inhibition by lipoxygenase activity by 50% (IC50) was determined by monitoring the effect of increasing concentrations of these compounds in the assays on the degree of inhibition.
Regarding `CC1(C)CC(=O)C(C(c2ccc(O)cc2)C2C(=O)CC(C)(C)CC2=O)C(=O)C1` [Tetraketone, 6], inhibition was half-maximal at 26.4 µM (IC50).
Under `CC1(C)CC(=O)C(C(c2ccccc2O)C2C(=O)CC(C)(C)CC2=O)C(=O)C1` [Tetraketone, 4] stands 198 µM.
For `COc1ccc(C(C2C(=O)CC(C)(C)CC2=O)C2C(=O)CC(C)(C)CC2=O)c(OC)c1` [Tetraketone, 9] the value was 33.1 µM.
Under `Cc1ccc(C(C2C(=O)CC(C)(C)CC2=O)C2C(=O)CC(C)(C)CC2=O)cc1` [Tetraketone, 3] stands 16.3 µM; under `COc1ccc(C(C2C(=O)CC(C)(C)CC2=O)C2C(=O)CC(C)(C)CC2=O)cc1` [Tetraketone, 8], 21.3 µM.
For `CC1(C)CC(=O)C(C(c2ccccc2[N+](=O)[O-])C2C(=O)CC(C)(C)CC2=O)C(=O)C1` [Tetraketone, 16], it took 191 µM to reach half-maximal inhibition (IC50).
For the molecule `COc1ccccc1C(C1C(=O)CC(C)(C)CC1=O)C1C(=O)CC(C)(C)CC1=O` [Tetraketone, 7], the midpoint of inhibition, the IC50, lay at 196 µM.
Regarding `CN(C)c1ccc(C(C2C(=O)CC(C)(C)CC2=O)C2C(=O)CC(C)(C)CC2=O)cc1` [Tetraketone, 11], the IC50 – broadly, the midpoint of a concentration-inhibition curve – was 17.5 µM.
For `CCOc1ccc(C(C2C(=O)CC(C)(C)CC2=O)C2C(=O)CC(C)(C)CC2=O)cc1` [Tetraketone, 10] the value was 30.8 µM.
Under `CC1(C)CC(=O)C(C(c2ccccc2Cl)C2C(=O)CC(C)(C)CC2=O)C(=O)C1` [Tetraketone, 12] stands 28.4 µM.
For `CC1(C)CC(=O)C(C(c2ccco2)C2C(=O)CC(C)(C)CC2=O)C(=O)C1` [Tetraketone, 21] the value was 51.5 µM; for `CC1(C)CC(=O)C(C(c2cccc(Br)c2)C2C(=O)CC(C)(C)CC2=O)C(=O)C1` [Tetraketone, 14], 52.9 µM; for `CC1(C)CC(=O)C(C(c2ccc(/C(Br)=C/c3ccccc3)cc2)C2C(=O)CC(C)(C)CC2=O)C(=O)C1` [Tetraketone, 20], 35.4 µM.
As to `CC1(C)CC(=O)C(C(c2ccc(/C=C/c3ccccc3)cc2)C2C(=O)CC(C)(C)CC2=O)C(=O)C1` [Tetraketone, 19], the IC50 stood at 7.8 µM.
For `Cc1ccc(C(C2C(=O)CC(C)(C)CC2=O)C2C(=O)CC(C)(C)CC2=O)o1` [Tetraketone, 22] the value was 12.5 µM; for `CC1(C)CC(=O)C(C(c2ccc(O)c(Br)c2)C2C(=O)CC(C)(C)CC2=O)C(=O)C1` [Tetraketone, 15], 27.1 µM; for `CC1(C)CC(=O)C(C(c2ccccc2)C2C(=O)CC(C)(C)CC2=O)C(=O)C1` [Tetraketone, 2], 33 µM.

The values above are taken from BindingDB's records for doi:10.1080/14756360701408754 (Pharmaceutical Research Centre, 2008).
